Values of other authors, collected in US20260207586A1, “PHARMACEUTICAL COMPOSITION COMPRISING LURBINECTEDIN, PREPARATION METHOD THEREFOR, AND USE THEREOF” (BrightGene Bio-Medical Technology Co., Ltd., priority 2022, published 2026).

- Solubility in water: limited
- Storage time under refrigeration (5° C.): 1 month
- Stability at room temperature (25° C.): rapidly degraded
SMILES: COc1ccc2[nH]c3c(c2c1)CCN[C@]31CS[C@@H]2c3c(OC(C)=O)c(C)c4c(c3[C@H](COC1=O)N1[C@@H]2[C@H]2c3c(cc(C)c(OC)c3O)C[C@@H]([C@@H]1O)N2C)OCO4 [Lurbinectedin]
